From patent publication US11136370B2, “Compositions and methods for thrombin generation assay” (The Scripps Research Institute, priority 2016, dated 2021)

Experiments:
[1] = system: thrombin generation (TG); assay: TG in FVII-deficient reconstituted PRP with FVIIa WT or mutants; type: biochemical, human; settings: FVII-deficient plasma
Method: (A) Phospholipid-free assay of FX (1 μM) to FXa conversion by the complex of 2 μM soluble rTF with 10 nM FVIIa WT, T99Y or E154A. (B) FXa generation by 50 pM phospholipid-reconstituted rTF with 200 pM FVIIa WT, T99Y or E154A added to 135 nM FX, 0.7 nM FVIII, 3 nM FV and 200 nM lepirudin (2 min, n=2-3; 4 min, n=4-5; 6 min, n=6-9). (C) WB (representing 2) of FVIII activation in reactions of 50 pM TF, 200 pM FVIIa WT or mutants, 0.7 nM FVIII, 3 nM FV and 200 nM lepirudin without/with 135 nM FX, incubated for 120 s at 37° C. […] (E) FXa generation measured in reactions as in (D) without TFPIα and in the presence of 10 nM FIXa (left, incubation 180 s; n=5-6 except=2 for E154A) or 90 nM FIX (right, incubation for 360 s; n=5-6). […] Differences were evaluated by the ANOVA/Tukey test; results at 4 and 6 min in (B) and in reactions with FIX in (E, right) were analyzed after transformation as y=log 10 y (**P<0.01, ***P<0.001).
Thrombin was quantified with a fluorogenic substrate for calculation of % inhibition. […] Endogenous thrombin potential (ETP, right) was calculated from the area under the TG curve (n=2). […] Differences were evaluated with the ANOVA/Tukey test (performed after log 10 transformation of the data shown in E); *P<0.05, ***P<0.001. […]

[2] = biological target: thrombin (Homo sapiens, UniProt P00734); settings: 0.5 nM FIIa, 50 pM rTF, 180 s
Method: FVIII activation by stable FXa complexes with TF-FVIIa was tested in reactions containing FVIII, FV and lepirudin with or without TFPIα, with incubation for 30-120 s at 37° C. […] The inhibitory effect of hirugen on FVIIIa generation by FIIa was tested in reactions with 0.5 nM FIIa incubated with 50 pM rTF and FVIII for 180 s at 37° C.

[3] = system: thrombin generation (TG); type: biochemical, human; settings: 2 μM hirugen, PRP with CTI and anti-FXI MoAb
Method: TG in PRP or reconstituted PRP was evaluated as known to those skilled in the art. Native PRP was prepared from blood collected into final 12.9 mM trisodium citrate by centrifugation at 250 g for 10 min at 25° C. The platelet count was adjusted to 180×10^3/μl by dilution with homologous PPP obtained by centrifuging PRP for 10 min at 1,500 g. CTI was added at 30-50 μg/ml depending on calibrated potency as assessed by FXIIa inhibition. Reconstituted PRP was prepared with washed platelets prepared from normal PRP by adding ⅕th volume of acid citrate-dextrose (71 mM citric acid, 85 mM trisodium citrate, and 111 mM dextrose, pH 4.5) and 5 U/ml apyrase; following centrifugation at 1,500 g for 10 minutes at 25° C., the platelet pellet was resuspended into PPP lacking FVII (George King Bio-Medical) or FIX (Haematologic Technologies) to give a final platelet count of 180·103/μl PRP was mixed with varying concentrations of rTF and/or 20 pM FIXa in 96-well microtiter plates. The reaction was started by adding 18 mM CaCl2 with 360 μM of the thrombin substrate benzyloxycarbonyl-glycyl-glycyl-L-arginine coupled to the fluorogenic group 7-amido-4-methylcoumarin (Gly-Gly-Arg-AMC; Bachem Americas, Torrance, Calif.). Fluorescence was measured continuously at 37° C. for up to 40 min in a spectrofluorometer (355/460 nm excitation/emission). The rate of fluorescence intensity increase as a function of time (dF/dt) was calculated with Turbo Delphi 2006 (Borland Software Corporation, Austin, Tex.) and converted to thrombin-equivalent concentration (nM) using a calibration curve. The endogenous thrombin potential (ETP) of samples, i.e. total generated thrombin activity, was determined from the area under the TG curve. When specified, TG was measured with a discontinuous 2-stage assay with a detection limit of 5 pM. For this, TG was induced by 0.15 pM rTF and 18 mM CaCl2 in reconstituted FVII-deficient PRP including 30 μg/ml CTI with 400 pM WT FVIIa or iFVIIa without or with 20 pM FIXa. After incubation for up to 11 min at 37° C., reactions were terminated by adding 20 mM EDTA and generated thrombin was measured using the highly sensitive thrombin substrate H-D-CHA-Ala-Arg-AMC.2AcOH (Pefafluor TH, Pentapharm, Basel, Switzerland) at 50 μM concentration. In other experiments, TG was induced by TFiFVIIa-FXa-TFPI or TF-iFVIIa-FXa-NAPc2. These stable complexes were pre-formed by incubating 5 nM FXa, 10 nM TF, 10 nM iFVIIa and 40 nM TFPI or NAPc2 in the presence of 2.5 mM CaCl2 for 2 min at 37° C. Complexes were added into FVII-deficient PRP, followed by incubation for 8 min at 37° C.
PRP was prepared from blood collected into trisodium citrate (final concentration 0.0129 M) by centrifugation for at 250 g for 10 min at 25° C.; the platelet count was adjusted at 180.103 per μl by diluting with homologous platelet-poor plasma (PPP) obtained by centrifuging PRP for an additional 10 min at 1,500 g. When indicated, CTI was added at 30 to 50 μg/ml depending on calibrated potency measured by FXIIa inhibition. Reconstituted PRP was prepared by adding normal washed platelets into PPP (without or with CTI) lacking FVII, FVIII (both from George King Bio-Medical, Overland Park, Kans.) or FIX (Haematologic Technologies). […] generation in PRP was measured as described by Hemker et al. 53 μl of PRP was mixed in 96-well microtiter plates with 15 μl of a solution containing rTF and/or one of the intrinsic coagulation pathway proteases—FXIIa, FXIa or FIXa—to achieve the indicated final concentrations. Antibodies or inhibitors were also added at this point at the concentration indicated for each specific case. The reaction was started by adding between 15 and 20 μl of 100 mM CaCl2 and 2 mM fluorogenic substrate, benzyloxycarbonyl-glycyl-glycyl-L-arginine-7-amido-4-methylcoumarin (Gly-Gly-Arg-AMC; Bachem Americas, Torrance, Calif.).

[4] = system: FVIII; assay: FVIII activation in rTF/FVIIa-initiated reactions with FX, prothrombin, FVIII, FV (immunoblot); settings: thrombin blocked with 4 μM DAPA
Method: Quantification of generated FVIIIa-A1 calibrated with known quantities of the fragment. (B) FVIIIa activity calculated from FXa generation in reactions as in (A), but with 10 nM FIXa added and incubated for 180 s at 37° C. (n=4-12). FXa generation depend-ent on FVIIIa-FIXa activity was calculated by subtracting FXa generated by FVIIa and FIXa added individually from that by FVIIa/FIXa added together. (C) FVIIIa activity generated and calculated in reaction as in (A, B) but with the addition of 10 nM TFPIα. Results in A (bottom), B and C—shown as 25th-75th percentile bars, min-to-max whiskers, line at the median; or min-to-max floating bars with line at the mean when n≤3—were analyzed by ANOVA/Tukey tests. ***P<0.001; NS, not significant.
Reactions in 50 mM Tris-buffered saline, pH 7.4, with 0.1% bovine serum albumin included 0.7 nM FVIII, 3 nM FV, 135 nM FX and 1 μM prothrombin without/with 4 μM DAPA. TFPI and other inhibitors were added as indicated. […] After quenching the reaction with 10 mM EDTA, generated FXa was measured with S-2765 (180 μM). FVIIIa procoagulant activity was measured as FIXa-dependent FXa generation; FVIIIa procoagulant activity generated by the nascent TF-FVIIa-FXa complex was calculated by subtracting the amount of FXa produced in reactions initiated by FVIIa and FIXa individually from that produced in reactions initiated by FVIIa/FIXa combined. […]

Compound | effect on FIXa-initiated TG [1] | effect on FVIII activation by thrombin [2] | effect on FIXa-dependent TG [3] | effect on TG by FIXa combined with rTF [3] | FVIIIa still detectable [4]
63-O-Sulfo-Tyr-hirudin [hirugen] | abolished | dose-dependently inhibited | blocked | failed to inhibit | 
CCC1CCN(C(=O)C(CCCN=C(N)N)NS(=O)(=O)c2cccc3c(N(C)C)cccc23)CC1 (centres unmarked) [DAPA, dansylarginine N-(3-ethyl-1,5-pentanediyl)amide] |  |  |  |  | ~15%
